Patent US11649231B2, “Compound as mTOR inhibitor and use thereof” (MEDICINAL BIOCONVERGENCE RESEARCH CENTER, priority 2018, dated 2023)

Test system: mTORC1
Test: mTORC1 activity inhibitory effect at 20 μM, phospho-p70 S6 Kinase Western blot in SW620 cells
Settings: leucine-free 1 h 30 min, then leucine 15 min, vs DMSO control
Protocol: In order to evaluate the inhibitory effect of the compounds according to the present invention on the activity of mTORC1, an experiment was performed in the following manner.

| Structure (SMILES) | mTORC1 inhibitory effect (%) |
| --- | --- |
| CCN1C(=O)/C(=C/c2cnn(-c3cccc(Cl)c3)c2)SC1=S [Example 1-15, (5Z)-5-[[1-(3-chlorophenyl)pyrazol-4-yl]methylene]-3-ethyl-2-thioxo-thiazolidin-4-one] | 72.46 ± 1.79 |
| O=C1NC(=S)S/C1=C\c1ccn(-c2ccc(Cl)cc2)n1 [Example 1-55, (5Z)-5-[[1-(4-chlorophenyl)pyrazol-3-yl]methylene]-2-thioxo-thiazolidin-4-one] | 74.6 ± 6.5 |
| CCCCc1ccc(-n2cc(/C=C3\SC(=S)N(CC)C3=O)cn2)cc1 [Example 1-27, (5Z)-5-[[1-(4-butylphenyl)pyrazol-4-yl]methylene]-3-ethyl-2-thioxo-thiazolidin-4-one] | 51.70 ± 7.12 |
| Cc1ccc(-n2cc(/C=C3\SC(=S)N(C)C3=O)cn2)cc1 [Example 1-21, (5Z)-3-methyl-5-[[1-(p-tolyl)pyrazol-4-yl]methylene]-2-thioxo-thiazolidin-4-one] | 71.18 ± 5.04 |
| Cc1ccc(-n2cc(/C=C3\SC(=O)NC3=O)cn2)cc1 [Example 1-46, (5Z)-5-[[1-(p-tolyl)pyrazol-4-yl]methylene]thiazolidine-2,4-dione] | 74.39 ± 0.62 |
| CCCCc1ccc(-n2cc(/C=C3\SC(=O)NC3=O)cn2)cc1 [Example 1-48, (5Z)-5-[[1-(4-butylphenyl)pyrazol-4-yl]methylene]thiazolidine-2,4-dione] | 69.53 ± 2.04 |
| O=C1NC(=O)/C(=C/c2cnn(-c3ccccc3F)c2)S1 [Example 1-40, (5Z)-5-[[1-(2-fluorophenyl)pyrazol-4-yl]methylene]thiazolidine-2,4-dione] | 41.03 ± 0.21 |
| CN1C(=O)/C(=C/c2cnn(-c3ccccc3Cl)c2)SC1=S [Example 1-10, (5Z)-5-[[1-(2-chlorophenyl)pyrazol-4-yl]methylene]-3-methyl-2-thioxo-thiazolidin-4-one] | 50.52 ± 3.69 |
| O=C1NC(=O)/C(=C/c2cnn(-c3cccc(F)c3)c2)S1 [Example 1-41, (5Z)-5-[[1-(3-fluorophenyl)pyrazol-4-yl]methylene]thiazolidine-2,4-dione] | 49.37 ± 7.34 |
| C=CCN1C(=O)/C(=C/c2cnn(-c3ccccc3Cl)c2)SC1=S [Example 1-12, (5Z)-3-allyl-5-[[1-(2-chlorophenyl)pyrazol-4-yl]methylene]-2-thioxo-thiazolidin-4-one] | 70.93 ± 2.39 |
| CCN1C(=O)/C(=C/c2cnn(-c3ccc(C)c(C)c3)c2)SC1=S [Example 1-29, (5Z)-5-[[1-(3,4-dimethylphenyl)pyrazol-4-yl]methylene]-3-ethyl-2-thioxo-thiazolidin-4-one] | 4.02 ± 6.64 |
| CN1C(=O)/C(=C/c2cnn(-c3cccc(Cl)c3)c2)SC1=S [Example 1-14, (5Z)-5-[[1-(3-chlorophenyl)pyrazol-4-yl]methylene]-3-methyl-2-thioxo-thiazolidin-4-one] | 46.72 ± 14.22 |
| O=C1NC(=O)/C(=C/c2cnn(-c3ccccc3Cl)c2)S1 [Example 1-43, (5Z)-5-[[1-(2-chlorophenyl)pyrazol-4-yl]methylene]thiazolidine-2,4-dione] | 52.34 ± 3.97 |
| CCN1C(=O)/C(=C/c2cnn(-c3ccc(C(C)C)cc3)c2)SC1=S [Example 1-25, (5Z)-3-ethyl-5-[[1-(4-isopropylphenyl)pyrazol-4-yl]methylene]-2-thioxo-thiazolidin-4-one] | 36.86 ± 3.47 |
| CCN1C(=O)/C(=C/c2cnn(-c3ccccc3)c2)SC1=S [Example 1-4, (5Z)-3-ethyl-5-[(1-phenylpyrazol-4-yl)methylene]-2-thioxo-thiazolidin-4-one] | 68.36 ± 1.69 |
| O=C1NC(=O)/C(=C/c2cnn(-c3cccc(Cl)c3)c2)S1 [Example 1-44, (5Z)-5-[[1-(3-chlorophenyl)pyrazol-4-yl]methylene]thiazolidine-2,4-dione] | 50.76 ± 5.28 |
| O=C1/C(=C/c2cnn(-c3ccccn3)c2)SC(=S)N1CCO [Example 1-34, (5Z)-3-(2-hydroxyethyl)-5-[[1-(2-pyridyl)pyrazol-4-yl]methylene]-2-thioxo-thiazolidin-4-one] | 82.94 ± 1.10 |
| CCN1C(=O)/C(=C/c2cnn(-c3ccc(C)cc3)c2)SC1=S [Example 1-22, (5Z)-3-ethyl-5-[[1-(p-tolyl)pyrazol-4-yl]methylene]-2-thioxo-thiazolidin-4-one] | 77.21 ± 0.84 |
| COc1ccccc1-n1cc(/C=C2\SC(=O)NC2=O)cn1 [Example 1-50, (5Z)-5-[[1-(2-methoxyphenyl)pyrazol-4-yl]methylene]thiazolidine-2,4-dione] | 38.93 ± 16.04 |
| Cc1nn(-c2ccccc2)c(C)c1/C=C1\SC(=O)NC1=O [Example 1-54, (5Z)-5-[(3,5-dimethyl-1-phenyl-pyrazol-4-yl]methylene]thiazolidine-2,4-dione] | 71.17 ± 4.46 |
| Cn1cc(/C=C2\SC(=S)N(Cc3ccco3)C2=O)cn1 [Example 1-2, (5Z)-3-(2-furylmethyl)-5-[(1-methylpyrazol-4-yl)methylene]-2-thioxo-thiazolidin-4-one] | 74.4 ± 0.2 |

| Structure (SMILES) | mTORC1 inhibitory effect (%) |
| --- | --- |
| C=CCN1C(=O)/C(=C/c2cnn(-c3cccc(Cl)c3)c2)SC1=S [Example 1-16, (5Z)-3-allyl-5-[[1-(3-chlorophenyl)pyrazol-4-yl]methylene]-2-thioxo-thiazolidin-4-one] | 3.74 ± 10.43 |
| O=C1NC(=S)S/C1=C\c1cnn(-c2ccc3ccccc3c2)c1 [Example 1-31, (5Z)-5-[[1-(2-naphthyl)pyrazol-4-yl]methylene]-2-thioxo-thiazolidin-4-one] | 40.20 ± 1.02 |
| CC(C)c1ccc(-n2cc(/C=C3\SC(=O)NC3=O)cn2)cc1 [Example 1-47, (5Z)-5-[[1-(4-isopropylphenyl)pyrazol-4-yl]methylene]thiazolidine-2,4-dione] | 74.36 ± 1.23 |
| O=C1NC(=O)/C(=C/c2ccn(-c3ccccc3)n2)S1 [Example 1-58, (5Z)-5-[[1-phenylpyrazol-3-yl]methylene]thiazolidine-2,4-dione] | 59.51 ± 4.35 |
| O=C1NC(=O)/C(=C/c2cnn(-c3ccc(F)cc3)c2)S1 [Example 1-42, (5Z)-5-[[1-(4-fluorophenyl)pyrazol-4-yl]methylene]thiazolidine-2,4-dione] | 73.81 ± 2.77 |
| Cc1nn(-c2ccccc2)c(C)c1/C=C1\SC(=S)NC1=O [Example 1-38, (5Z)-5-[(3,5-dimethyl-1-phenyl-pyrazol-4-yl)methylene]-2-thioxo-thiazolidin-4-one] | 75.78 ± 2.60 |
| C=CCN1C(=O)/C(=C/c2cnn(-c3ccccc3)c2)SC1=S [Example 1-5, (5Z)-3-allyl-5-[(1-phenylpyrazol-4-yl)methylene]-2-thioxo-thiazolidin-4-one] | 45.82 ± 3.59 |
| C=CCN1C(=O)/C(=C/c2cnn(-c3ccc(C)cc3)c2)SC1=S [Example 1-23, (5Z)-3-allyl-5-[[1-(p-tolyl)pyrazol-4-yl]methylene]-2-thioxo-thiazolidin-4-one] | 15.74 ± 10.22 |
| Cc1ccc(-n2cc(/C=C3\SC(=O)NC3=O)cn2)cc1C [Example 1-49, (5Z)-5-[[1-(3,4-dimethylphenyl)pyrazol-4-yl]methylene]thiazolidine-2,4-dione] | 68.36 ± 2.99 |
| CCCCc1ccc(-n2cc(/C=C3\SC(=S)NC3=O)cn2)cc1 [Example 1-26, (5Z)-5-[[1-(4-butylphenyl)pyrazol-4-yl]methylene]-2-thioxo-thiazolidin-4-one] | 59.73 ± 3.55 |
| CN1C(=O)/C(=C/c2cnn(-c3ccc(Cl)cc3)c2)SC1=S [Example 1-18, (5Z)-5-[[1-(4-chlorophenyl)pyrazol-4-yl]methylene]-3-methyl-2-thioxo-thiazolidin-4-one] | 50.17 ± 12.77 |
| O=C1NC(=O)/C(=C/c2cnn(-c3ccc(Cl)cc3)c2)S1 [Example 1-45, (5Z)-5-[[1-(4-chlorophenyl)pyrazol-4-yl]methylene]thiazolidine-2,4-dione] | 64.18 ± 3.13 |
| O=C1/C(=C/c2cnn(-c3cccnc3)c2)SC(=S)N1CCO [Example 1-36, (5Z)-3-(2-hydroxyethyl)-5-[[1-(3-pyridyl)pyrazol-4-yl]methylene]-2-thioxo-thiazolidin-4-one] | 80.88 ± 1.10 |
| Cc1ccc(-n2cc(/C=C3\SC(=S)NC3=O)cn2)cc1 [Example 1-20, (5Z)-5-[[1-(p-tolyl)pyrazol-4-yl]methylene]-2-thioxo-thiazolidin-4-one] | 83.30 ± 1.76 |
| O=C1NC(=O)/C(=C/c2cnn(-c3ccc4ccccc4c3)c2)S1 [Example 1-51, (5Z)-5-[[1-(2-naphthyl)pyrazol-4-yl]methylene]thiazolidine-2,4-dione] | 53.08 ± 1.81 |
| Cc1ccc(-n2cc(/C=C3\SC(=S)NC3=O)cn2)cc1C [Example 1-28, (5Z)-5-[[1-(3,4-dimethylphenyl)pyrazol-4-yl]methylene]-2-thioxo-thiazolidin-4-one] | 47.13 ± 3.15 |
| Cc1nn(-c2ccccc2)cc1/C=C1\SC(=O)NC1=O [Example 1-53, (5Z)-5-[(3-methyl-1-phenyl-pyrazol-4-yl)methylene]thiazolidine-2,4-dione] | 71.70 ± 1.70 |
| CN1C(=O)/C(=C/c2cnn(-c3ccccc3)c2)SC1=S [Example 1-3, (5Z)-3-methyl-5-[(1-phenylpyrazol-4-yl)methylene]-2-thioxo-thiazolidin-4-one] | 53.97 ± 1.49 |
| CCN1C(=O)/C(=C/c2cnn(-c3ccc4ccccc4c3)c2)SC1=S [Example 1-32, (5Z)-3-ethyl-5-[[1-(2-naphthyl)pyrazol-4-yl]methylene]-2-thioxo-thiazolidin-4-one] | 75.04 ± 5.32 |
| CCN1C(=O)/C(=C/c2cnn(-c3ccccc3Cl)c2)SC1=S [Example 1-11, (5Z)-5-[[1-(2-chlorophenyl)pyrazol-4-yl]methylene]-3-ethyl-2-thioxo-thiazolidin-4-one] | 67.22 ± 1.41 |
